Here are results for 13 compounds from patent US11957759B1, “Rapidly accelerated fibrosarcoma (RAF) degrading compounds and associated methods of use” (Arvinas Operations, Inc., priority 2022, dated 2024).

In one assay the target is T1, B-RAF V600E (Homo sapiens, UniProt P15056, V600E).
T1 construct: expressed in transfected cells; host or cells: T-Rex 293 cells (Invitrogen #R71007)
Description: Target protein degradation, assay C: T-Rex 293 cells, HA-BRAF_V600E, 384 well format. Format: cell-based. The settings on record: T-Rex 293 HA-BRAF_V600E cells, 24 hours, Examples 83-269; for DC50: Assay C; for Dmax: T-REx-293, Assay C. The method in brief: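 After 24 h exposure to an 11-point 1:3 series (300 nM–5 pM, 0.5% DMSO), fixed T-Rex 293 cells carrying HA-BRAF V600E (induced with 1 ng/mL doxycycline) were stained anti-HA and imaged. DC50 and Dmax were derived from BRAF intensity relative to control, and cytotoxicity from nuclear counts.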

The next assay addresses T2, B-RAF G466V (Homo sapiens, UniProt P15056, G466V).
T2 construct: expressed in transfected cells; host or cells: T-Rex 293 cells (Invitrogen #R71007)
The assay is described as follows: Target protein degradation, assay D: T-Rex 293 cells, HA-BRAF_G466V, 384 well format. As to conditions: T-Rex 293 HA-BRAF_G466V cells, 24 hours, Examples 83-269; for DC50: Assay D; for Dmax: T-REx-293, Assay D. Format: cell-based. In short, it runs like this:
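Degradation measured by high-content imaging of anti-HA immunofluorescence in fixed T-Rex 293 cells carrying inducible HA-BRAF G466V (1 ng/mL doxycycline), after 24 h PROTAC exposure at 37 °C over 300 nM–5 pM (1:3, 11 points, 0.5% DMSO). Outputs DC50 and Dmax as % of control; nuclei counts against DMSO wells gauge toxicity.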

Where only a bound is given, the exact number is not on record here.

T1 sequence (P15056 whole entry V600E): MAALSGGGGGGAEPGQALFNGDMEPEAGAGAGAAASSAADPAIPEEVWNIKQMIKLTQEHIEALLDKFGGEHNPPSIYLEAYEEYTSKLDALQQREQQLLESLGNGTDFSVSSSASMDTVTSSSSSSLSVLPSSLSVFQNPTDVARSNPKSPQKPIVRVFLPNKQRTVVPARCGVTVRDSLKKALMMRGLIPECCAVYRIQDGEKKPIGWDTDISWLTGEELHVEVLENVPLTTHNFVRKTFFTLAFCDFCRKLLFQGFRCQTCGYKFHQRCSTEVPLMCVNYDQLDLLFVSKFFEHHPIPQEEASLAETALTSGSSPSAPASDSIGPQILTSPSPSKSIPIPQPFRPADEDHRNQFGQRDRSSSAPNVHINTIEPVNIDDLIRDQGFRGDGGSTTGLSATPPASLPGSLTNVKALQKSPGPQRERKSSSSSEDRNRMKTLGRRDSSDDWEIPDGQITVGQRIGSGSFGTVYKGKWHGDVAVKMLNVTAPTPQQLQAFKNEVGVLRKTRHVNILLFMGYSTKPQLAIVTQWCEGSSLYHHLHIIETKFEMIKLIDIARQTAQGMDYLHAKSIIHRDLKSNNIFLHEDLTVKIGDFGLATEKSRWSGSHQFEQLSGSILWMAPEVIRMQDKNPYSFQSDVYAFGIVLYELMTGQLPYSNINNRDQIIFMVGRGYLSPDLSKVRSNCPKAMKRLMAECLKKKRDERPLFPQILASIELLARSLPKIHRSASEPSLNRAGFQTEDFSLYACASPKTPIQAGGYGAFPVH
T2 sequence (P15056 whole entry G466V): as the sequence (P15056 whole entry V600E) above, with G466V, E600V counted along it

Turning to `N#Cc1c(NS(=O)(=O)N2CC[C@@H](F)C2)ccc(F)c1Oc1ccc2ncn(-c3ccc(N4CCC(CCN5CCN(c6ccc7c(c6)C(=O)N(C6CCC(=O)NC6=O)C7=O)CC5)CC4)nc3)c(=O)c2c1` (stereo partly drawn) [Example 163, (3R)-N-{2-cyano-3-[(3-{6-[4-(2-{4-[2-(2,6-dioxopiperidin-3-yl)-1,3-dioxo-2,3-dihydro-1H-isoindol-5-yl]piperazin-1-yl}ethyl)piperidin-1-yl]pyridin-3-yl}-4-oxo-3,4-dihydroquinazolin-6-yl)oxy]-4-fluorophenyl}-3-fluoropyrrolidine-1-sulfonamide], the half-maximal degradation concentration (DC50) (commonly the concentration giving 50% degradation) on B-RAF V600E fell in the range of 50 to 500 nM; at B-RAF G466V, 10 to 30 nM. For the same compound, the Dmax (in general, the greatest extent of degradation seen) on B-RAF V600E was 35 to 70%; at B-RAF G466V, ≤ 35%.
As to `N#Cc1c(NS(=O)(=O)N2CC[C@H](F)C2)ccc(F)c1Oc1ccc2ncn(-c3ccc(N4CCN(CC5CN(c6ccc7c(c6)CN([C@H]6CCC(=O)NC6=O)C7=O)C5)CC4)cc3)c(=O)c2c1` [Example 195, (3S)-N-(2-cyano-3-{[3-(4-{4-[(1-{2-[(3S)-2,6-dioxopiperidin-3-yl]-1-oxo-2,3-dihydro-1H-isoindol-5-yl}azetidin-3-yl)methyl]piperazin-1-yl}phenyl)-4-oxo-3,4-dihydroquinazolin-6-yl]oxy}-4-fluorophenyl)-3-fluoropyrrolidine-1-sulfonamide], on B-RAF V600E, the DC50 was 50 to 500 nM and the greatest degradation seen (Dmax) is ≤ 35%. At B-RAF G466V, the 50% degradation concentration (DC50) lay within 1 to 10 nM and the Dmax was ≤ 35%.
For the compound `CCN(C)S(=O)(=O)Nc1ccc(F)c(Oc2ccc3ncn(-c4ccc(N5CCN(CC6CCN(c7ccc8c(c7)CN(C7CCC(=O)NC7=O)C8=O)CC6)CC5)cc4)c(=O)c3c2)c1C#N` (stereo not drawn) [Example 109, 2-[(3-{4-[4-({1-[2-(2,6-dioxopiperidin-3-yl)-1-oxo-2,3-dihydro-1H-isoindol-5-yl]piperidin-4-yl}methyl)piperazin-1-yl]phenyl}-4-oxo-3,4-dihydroquinazolin-6-yl)oxy]-6-{[ethyl(methyl)sulfamoyl]amino}-3-fluorobenzonitrile], on B-RAF V600E, the DC50 fell in the range of 50 to 500 nM and the Dmax lay in the range of 35 to 70%. At B-RAF G466V, this compound came in with a half-maximal degradation concentration (DC50) of 1 to 10 nM and a maximal degradation (Dmax) of 35 to 70%.
For the compound `N#Cc1c(NS(=O)(=O)N2CC[C@@H](F)C2)ccc(F)c1Oc1ccc2ncn(-c3ccc(N4CCN(C(=O)C5CN(c6ccc7c(c6)CN([C@H]6CCC(=O)NC6=O)C7=O)C5)CC4)cc3)c(=O)c2c1` [Example 243, (3R)-N-{2-cyano-3-[(3-{4-[4-(1-{2-[(3S)-2,6-dioxopiperidin-3-yl]-1-oxo-2,3-dihydro-1H-isoindol-5-yl}azetidine-3-carbonyl)piperazin-1-yl]phenyl}-4-oxo-3,4-dihydroquinazolin-6-yl)oxy]-4-fluorophenyl}-3-fluoropyrrolidine-1-sulfonamide], the DC50 at B-RAF V600E is > 500 nM; at B-RAF G466V it was 10 to 30 nM. The compound also gave a Dmax on B-RAF G466V of 35 to 70%.
Take `N#Cc1c(NS(=O)(=O)N2CC[C@@H](F)C2)ccc(F)c1Oc1ccc2ncn(-c3ccc(N4CCN(c5ccc6c(c5)CN(C5CCC(=O)NC5=O)C6=O)CC4)nc3)c(=O)c2c1` (stereo partly drawn) [Example 143]: on B-RAF V600E, the DC50 is ≤ 5 nM and the Dmax was 35 to 70%. Further, the DC50 at B-RAF G466V is > 30 nM.
At B-RAF V600E, `N#Cc1c(NS(=O)(=O)N2CC[C@@H](F)C2)ccc(F)c1Oc1ccc2ncn(-c3ccc(N4CCN(CC5CCN(c6ccc7c(c6)CN(C6CCC(=O)NC6=O)C7=O)CC5)CC4)c(F)c3)c(=O)c2c1` (stereo partly drawn) [Example 86, (3R)-N-{2-cyano-3-[(3-(4-[4-({1-[2-(2,6-dioxopiperidin-3-yl)-1-oxo-2,3-dihydro-1H-isoindol-5-yl]piperidin-4-yl}methyl)piperazin-1-yl]-3-fluorophenyl}-4-oxo-3,4-dihydroquinazolin-6-yl)oxy]-4-fluorophenyl}-3-fluoropyrrolidine-1-sulfonamide] returned a DC50 of 5 to 50 nM and a maximal degradation (Dmax) of 35 to 70%. Moreover, on B-RAF G466V, the half-maximal degradation concentration (DC50) is ≤ 1 nM and the Dmax was ≤ 35%.
As for `N#Cc1c(NS(=O)(=O)N2CC[C@@H](F)C2)ccc(F)c1Oc1ccc2ncn(-c3ccc(N4CCN([C@H]5C[C@H](OC6CCN(c7ccc8c(c7)CN(C7CCC(=O)NC7=O)C8=O)CC6)C5)CC4)cc3)c(=O)c2c1` (stereo partly drawn) [Example 251, (3R)-N-(2-cyano-4-fluoro-3-{[4-oxo-3-(4-(4-[(1r,3r)-3-({1-[2-(2,6-dioxopiperidin-3-yl)-1-oxo-2,3-dihydro-1H-isoindol-5-yl]piperidin-4-yl}oxy)cyclobutyl]piperazin-1-yl}phenyl)-3,4-dihydroquinazolin-6-yl]oxy}phenyl)-3-fluoropyrrolidine-1-sulfonamide], at B-RAF V600E, the DC50 is 50 to 500 nM and the greatest degradation seen (Dmax) is 35 to 70%. On B-RAF G466V, the DC50 was 1 to 10 nM and the Dmax was in the range of 35 to 70%.
As to `N#Cc1c(NS(=O)(=O)N2CC[C@@H](F)C2)ccc(F)c1Oc1ccc2ncn(-c3ccc(N4CCN(CC5CCN(c6ccc7c(c6)CN(C6CCC(=O)NC6=O)C7=O)CC5)CC4)nn3)c(=O)c2c1` (stereo partly drawn) [Example 92, (3R)-N-{2-cyano-3-[(3-{6-[4-({1-[2-(2,6-dioxopiperidin-3-yl)-1-oxo-2,3-dihydro-1H-isoindol-5-yl]piperidin-4-yl}methyl)piperazin-1-yl]pyridazin-3-yl}-4-oxo-3,4-dihydroquinazolin-6-yl)oxy]-4-fluorophenyl}-3-fluoropyrrolidine-1-sulfonamide], on B-RAF V600E, the DC50 lay within 50 to 500 nM and the Dmax is ≤ 35%. For the same compound, on B-RAF G466V, the DC50 lay in the range of 10 to 30 nM and the greatest degradation seen (Dmax) was ≤ 35%.
Turning to `N#Cc1c(NS(=O)(=O)N2CC[C@@H](F)C2)ccc(F)c1Oc1ccc2ncn(-c3ccc(N4CCN(CCN5CCN(c6ccc(C7CCC(=O)NC7=O)cc6F)CC5)CC4)cc3)c(=O)c2c1` (stereo partly drawn) [Example 244, (3R)-N-{2-cyano-3-[(3-(4-[4-(2-{4-[4-(2,6-dioxopiperidin-3-yl)-2-fluorophenyl]piperazin-1-yl}ethyl)piperazin-1-yl]phenyl}-4-oxo-3,4-dihydroquinazolin-6-yl)oxy]-4-fluorophenyl}-3-fluoropyrrolidine-1-sulfonamide], the DC50 at B-RAF V600E lay within 50 to 500 nM; at B-RAF G466V, 1 to 10 nM. Also, the Dmax is 35 to 70% at B-RAF V600E and ≤ 35% on B-RAF G466V.
Take `N#Cc1c(NS(=O)(=O)N2CC[C@@H](F)C2)ccc(F)c1Oc1ccc2ncn(-c3ccc(N4CC5(CN(CC6CCN(c7ccc8c(c7)C(=O)N(C7CCC(=O)NC7=O)C8=O)CC6)C5)C4)nc3)c(=O)c2c1` (stereo partly drawn) [Example 172, (3R)-N-{2-cyano-3-[(3-{6-[6-({1-[2-(2,6-dioxopiperidin-3-yl)-1,3-dioxo-2,3-dihydro-1H-isoindol-5-yl]piperidin-4-yl}methyl)-2,6-diazaspiro[3.3]heptan-2-yl]pyridin-3-yl}-4-oxo-3,4-dihydroquinazolin-6-yl)oxy]-4-fluorophenyl}-3-fluoropyrrolidine-1-sulfonamide]: on B-RAF V600E, the DC50 was 50 to 500 nM and the Dmax is ≤ 35%. Besides, on B-RAF G466V, the 50% degradation concentration (DC50) was 1 to 10 nM and the maximal degradation (Dmax) is ≤ 35%.
For `N#Cc1c(NS(=O)(=O)N2CC[C@H](F)C2)ccc(F)c1Oc1ccc2ncn(-c3ccc(N4CCN(CC5CN(c6ccc7c(c6)CN([C@@H]6CCC(=O)NC6=O)C7=O)C5)CC4)cc3)c(=O)c2c1` [Example 196, (3S)-N-(2-cyano-3-{[3-(4-{4-[(1-{2-[(3R)-2,6-dioxopiperidin-3-yl]-1-oxo-2,3-dihydro-1H-isoindol-5-yl}azetidin-3-yl)methyl]piperazin-1-yl}phenyl)-4-oxo-3,4-dihydroquinazolin-6-yl]oxy}-4-fluorophenyl)-3-fluoropyrrolidine-1-sulfonamide], the DC50 lay in the range of 50 to 500 nM on B-RAF V600E and 1 to 10 nM on B-RAF G466V. Further, the greatest degradation seen (Dmax) on B-RAF V600E and at B-RAF G466V was 35 to 70% throughout.
With `N#Cc1c(NS(=O)(=O)N2CC[C@@H](F)C2)ccc(F)c1Oc1ccc2ncn(-c3cccc(C4CCN(CC5CCN(c6ccc7c(c6)CN([C@H]6CCC(=O)NC6=O)C7=O)CC5)C4)c3)c(=O)c2c1` (single isomer, unassigned) [Example 259, (3R)-N-{2-cyano-3-[(3-{3-[(3R*)-1-[(1-{2-[(3S)-2,6-dioxopiperidin-3-yl]-1-oxo-2,3-dihydro-1H-isoindol-5-yl}piperidin-4-yl)methyl]pyrrolidin-3-yl]phenyl}-4-oxo-3,4-dihydroquinazolin-6-yl)oxy]-4-fluorophenyl}-3-fluoropyrrolidine-1-sulfonamide], the DC50 on B-RAF V600E was in the range of 50 to 500 nM; on B-RAF G466V, 1 to 10 nM.
For `N#Cc1c(NS(=O)(=O)N2CC[C@@H](F)C2)ccc(F)c1Oc1ccc2ncn(-c3ccc(N4CCC(CN5CCC6(CCC(c7ccc8c(c7)CN([C@H]7CCC(=O)NC7=O)C8=O)CC6)CC5)CC4)cc3)c(=O)c2c1` [Example 262, (3R)-N-(2-cyano-3-{[3-(4-{4-[(9-{2-[(3S)-2,6-dioxopiperidin-3-yl]-1-oxo-2,3-dihydro-1H-isoindol-5-yl}-3-azaspiro[5.5]undecan-3-yl)methyl]piperidin-1-yl}phenyl)-4-oxo-3,4-dihydroquinazolin-6-yl]oxy}-4-fluorophenyl)-3-fluoropyrrolidine-1-sulfonamide], the DC50 on B-RAF V600E was 5 to 50 nM; at B-RAF G466V, 1 to 10 nM. The Dmax at B-RAF V600E and at B-RAF G466V was ≥ 70% throughout.
